For experiment [1], the target named is T1, AtPARP1 (TRXH-AtPARP1) (Arabidopsis thaliana, UniProt Q9ZP54).
T1 construct: gene PARP1; full-length coding region in pET32a(+), N-terminal thioredoxin-His (TRXH) tag kept, E. coli Origami (DE3), nickel-purified
T1 sequence (Q9ZP54 1-983): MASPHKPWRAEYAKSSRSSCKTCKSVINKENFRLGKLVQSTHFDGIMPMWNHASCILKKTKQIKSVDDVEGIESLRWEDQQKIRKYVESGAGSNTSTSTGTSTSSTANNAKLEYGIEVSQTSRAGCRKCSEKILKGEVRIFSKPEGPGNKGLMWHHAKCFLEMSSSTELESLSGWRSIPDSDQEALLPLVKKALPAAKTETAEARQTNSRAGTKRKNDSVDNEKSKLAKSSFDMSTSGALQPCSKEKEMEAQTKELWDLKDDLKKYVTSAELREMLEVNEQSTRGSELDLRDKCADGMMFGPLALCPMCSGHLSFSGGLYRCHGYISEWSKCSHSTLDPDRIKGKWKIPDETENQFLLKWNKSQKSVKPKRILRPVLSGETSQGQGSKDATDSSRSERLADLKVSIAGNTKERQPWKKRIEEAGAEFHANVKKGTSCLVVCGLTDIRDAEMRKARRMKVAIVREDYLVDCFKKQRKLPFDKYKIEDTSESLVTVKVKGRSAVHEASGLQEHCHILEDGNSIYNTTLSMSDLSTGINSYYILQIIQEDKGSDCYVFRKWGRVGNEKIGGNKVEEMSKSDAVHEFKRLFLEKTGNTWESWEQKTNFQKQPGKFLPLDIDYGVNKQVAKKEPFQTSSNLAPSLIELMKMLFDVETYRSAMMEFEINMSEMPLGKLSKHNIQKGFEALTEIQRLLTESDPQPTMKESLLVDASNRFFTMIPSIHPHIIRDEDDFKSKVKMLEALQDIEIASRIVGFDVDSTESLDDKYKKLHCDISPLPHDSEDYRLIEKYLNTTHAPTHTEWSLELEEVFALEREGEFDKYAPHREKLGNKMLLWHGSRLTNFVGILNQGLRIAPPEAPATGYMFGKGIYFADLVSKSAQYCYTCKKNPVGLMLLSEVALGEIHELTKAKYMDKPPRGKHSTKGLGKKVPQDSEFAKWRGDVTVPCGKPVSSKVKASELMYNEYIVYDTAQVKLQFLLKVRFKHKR
Put plainly: auto-PARylation assay, immunoblot with anti-pan-ADPR reagent. The following applies: 20 mM 3-AB, 1 mM NAD+, 500 nM broken DNA, 25 °C, pH 7.5, Mg2+. The format is biochemical. (In general: A western blot detects proteins with antibodies after separation by electrophoresis.)

The target of experiment [2] is T2, AtPARP2 (TRXH-AtPARP2) (Arabidopsis thaliana, UniProt Q11207).
T2 construct: gene PARP2; an MBP/MBD fusion was also tested
The experiment is described as above. Type of experiment: biochemical. The following applies: 1 mM NAD+, 500 nM broken DNA, 25 °C, pH 7.5, Mg2+.

T2 sequence (Q11207 whole entry, the tested form may be a part): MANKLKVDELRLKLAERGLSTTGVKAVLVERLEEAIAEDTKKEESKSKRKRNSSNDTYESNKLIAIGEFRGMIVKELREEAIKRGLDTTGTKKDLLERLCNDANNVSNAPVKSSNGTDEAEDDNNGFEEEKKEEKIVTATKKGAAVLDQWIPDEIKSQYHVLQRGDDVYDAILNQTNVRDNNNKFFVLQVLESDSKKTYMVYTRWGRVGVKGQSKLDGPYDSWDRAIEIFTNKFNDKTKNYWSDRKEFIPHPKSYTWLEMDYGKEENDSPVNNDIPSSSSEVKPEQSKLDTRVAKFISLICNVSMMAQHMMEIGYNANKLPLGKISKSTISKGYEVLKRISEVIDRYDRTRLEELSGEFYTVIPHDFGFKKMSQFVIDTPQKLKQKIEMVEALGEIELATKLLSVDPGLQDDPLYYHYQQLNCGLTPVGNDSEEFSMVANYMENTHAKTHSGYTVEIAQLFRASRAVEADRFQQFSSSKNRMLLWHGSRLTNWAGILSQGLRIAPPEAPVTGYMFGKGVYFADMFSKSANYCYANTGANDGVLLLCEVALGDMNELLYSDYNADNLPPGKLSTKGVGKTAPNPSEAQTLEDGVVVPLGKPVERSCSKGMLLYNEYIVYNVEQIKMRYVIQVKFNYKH

As to `NC(=O)c1cccc(N)c1` [3-AB], the “auto-PARylation assay, immunoblot with anti-pan-ADPR reagent” value in experiment [1] is “The signal was abolished by the PARP inhibitor 3-AB”.

For the molecule `NC(=O)c1ccc[n+]([C@@H]2O[C@H](COP(=O)(O)OP(=O)(O)OC[C@H]3O[C@@H](n4cnc5c(N)ncnc54)[C@H](O)[C@@H]3O)[C@@H](O)[C@H]2O)c1` [NAD^+], the “auto-PARylation assay, immunoblot with anti-pan-ADPR reagent” value in experiment [2] is “AtPARP2 produced shorter PAR chains than AtPARP1 within the same incubation time periods”.

For the origin of these results see PMC6701155, “New perspectives on the plant PARP family: Arabidopsis PARP3 is inactive, and PARP1 exhibits predominant poly (ADP-ribose) polymerase activity in response to DNA damage” (BMC Plant Biology, 2019).
